Reference: patent US7208514B2, “Tumorigenesis inhibitor” (Mitsubishi Pharma Corporation, priority 2003, dated 2007)
One block for each compound: values may come before it.

Columns and labels:
[1] = test system: azoxymethane-induced aberrant crypt foci in colon; assay: Suppressive effect on the formation of azoxymethane-induced aberrant crypt foci in colon; format: in vivo, male ICR mice; settings: for number of colonic ACF / body weight: mean ± standard error; for number of colonic ACF: control 10.3 ± 1.7; for body weight: mixed diet for 5 weeks, azoxymethane-treated mice
[2] = test system: lipid peroxide production in homogenate of the brain; assay: Examination of antioxidative effect (thiobarbituric acid reaction product, lipid peroxide, in brain homogenate); format: biochemical, Wistar rat
Protocol: The absorbance of a thiobarbituric acid reaction product (lipid peroxide) generated 1 hr after the incubation was measured.

[3] = test system: dimethylhydrazine-induced colonic ACF and colonic mucosal cell growth; assay: Suppressive effect on the formation of dimethylhydrazine-induced colonic ACF and cancer cell growth; format: in vivo, male ICR mice; settings: for number of colonic ACF: mean ± standard error, control 30.7 ± 3.3
[4] = literature statement; cited from earlier work
[5] = Y-700 5-20 mg/kg mixed diet, 5 weeks
[6] = Y-700 10 and 20 mg/kg mixed diet, 10 weeks
[7] = Y-700 mixed diet 10 and 20 mg/kg diet

feed intake [1, 5]: No change
SMILES: CC(C)(C)COc1ccc(-n2cc(C(=O)O)cn2)cc1C#N [Y-700, 1-(3-cyano-4-neopentyloxyphenyl)pyrazole-4-carboxylic acid]
number of colonic ACF ([1]; Y-700 5 mg/kg diet, 5 weeks): 7.0 ± 1.3 n/mice
body weight ([1]; Y-700 5 mg/kg diet): 40.4 ± 1.2 g
number of colonic ACF ([1]; Y-700 10 mg/kg diet, 5 weeks): 7.0 ± 0.7 n/mice
body weight ([1]; Y-700 10 mg/kg diet): 39.9 ± 1.4 g
number of colonic ACF ([1]; Y-700 15 mg/kg diet, 5 weeks): 6.5 ± 0.6 n/mice
body weight ([1]; Y-700 15 mg/kg diet): 40.3 ± 0.9 g
number of colonic ACF ([1]; Y-700 20 mg/kg diet, 5 weeks): 5.5 ± 0.7 n/mice
body weight ([1]; Y-700 20 mg/kg diet): 39.9 ± 1.0 g
body weight change attributable to Y-700 administration [1, 5]: nor was observed body weight change
number of colonic ACF, trend ([1]; Y-700 mixed diet 5-20 mg/kg diet): dose-dependent decreases
effect on the increase in the number of colonic ACF induced by azoxymethane ([1]; conclusion in words): suppressive effect
change in production amount of lipid peroxide attributable to addition of Y-700 ([2]; 0.5-20 μg/ml): No change
antioxidative effect ([2]; conclusion in words): no antioxidative effect
number of colonic ACF ([3]; Y-700 10 mg/kg diet, 10 weeks): 20.7 ± 2.0 n/mouse
number of colonic ACF ([3]; Y-700 20 mg/kg diet, 10 weeks): 22.9 ± 1.4 n/mouse
body weight change attributable to Y-700 administration [3, 6]: nor was observed body weight change
feed intake [3, 6]: No change
cell growth rate of the surrounding areas, change in words [3, 7]: significant decreases
number of colonic ACF, change in words [3, 7]: significant decreases
radical removing (scavenging) effect [4]: free of radical scavenging effect

SMILES: Oc1ncnc2[nH]ncc12 [allopurinol, reference compound]
radical removing (scavenging) effect [4]: shows a radical removing (scavenging) effect
